Measurements reported in patent US6953570B2, “Porphyrins with enhanced multi-photon absorption cross-sections for photodynamic therapy” (Montana State University, priority 2001, dated 2005).

Assay: Singlet oxygen 1Δg→3Σg luminescence after two-photon excitation of the photosensitizer
Assay type: physicochemical
Settings: air-saturated toluene solution, Ti:sapphire regenerative amplifier output 780 nm
Description: As illustrated in FIG. 4(a), the ^1Δg→^3Σg luminescence spectra of molecular oxygen in an air-saturated toluene solution of compound I after both one- and two-photon excitation were measured. The one-photon excitation is represented by the dashed line and the two-photon excitation is shown by the solid line. Both spectra are normalized to unity. For one photon excitation, second harmonics of a Ti:sapphire regenerative amplifier, 390 nm, with an average power intensity of 0.5 W/cm^2 were used, while for two-photon excitation, the output of a Ti:sapphire regenerative amplifier, 780 nm, with an average power intensity of 15 W/cm^2 was used. In both cases, the laser beam was slightly focused into a 1-cm cell to give a cylindrical irradiated volume of ˜1.5 mm diameter. The singlet oxygen luminescence spectrum was measured with a nitrogen-cooled Ge detector coupled with Jobin-Yvon monochromator and a lock-in amplifier.
FIG. 4(b) graphs the dependence of the ^1Δg→^3Σg luminescence intensity (lΔ) on the average illumination intensity, P, of molecular oxygen in an air-saturated toluene solution of compound I after two-photon excitation. The raw experimental data are shown by black squares, with the best power-law fit, lΔ=aP^n with n=2.1±0.1 shown by the dotted line.

SMILES: Clc1cccc(Cl)c1-c1c2nc(cc3ccc([nH]3)c(-c3ccc(C=Cc4ccc(N(c5ccccc5)c5ccccc5)cc4)cc3)c3nc(cc4ccc1[nH]4)C=C3)C=C2 [Compound I, 5-[4′″-(diphenylamino)-4″-stilbenyl]-15-[2′,6′-dichlorophenyl]-21H, 23H-porphyrin]
- exponent n of best power-law fit lΔ=aP^n (1Δg→3Σg luminescence intensity lΔ versus average illumination intensity P): 2.1±0.1
